The target of assay [1] is baculovirus-expressed JAK2 kinase (Homo sapiens, UniProt O60674). Kind of assay: biochemical. The method, then: Compounds were tested for their ability to inhibit the kinase activity of baculovirus-expressed JAK2 kinase using the time-resolved fluorescence (TRF) detection system. […] The plates were coated with 100 μL/well of 10 μg/mL Neutravidin (Pierce #31000, Rockford, Ill.) in TBS at 37° C. for 2 h, followed by 100 μL/well of 1 μg/mL 15-mer peptide substrate (biotinyl-amino-hexanoyl-[…]-amide, Infinity Biotech Research and Resource, Aston, Pa.) at 37° C. for 1 h. […] Enzyme (15 ng/mL JAK2) was added and the reaction was allowed to proceed at room temperature for 20 min. […] Inhibition data were analyzed using ActivityBase (IDBS, Guilford, UK). IC50 values were calculated by plotting percent inhibition versus log10 of the concentration of compound and fitting to the nonlinear regression sigmoidal dose-response (variable slope) equation in XLFit (IDBS, Guilford, UK).
baculovirus-expressed JAK2 kinase, sequence (O60674 whole entry): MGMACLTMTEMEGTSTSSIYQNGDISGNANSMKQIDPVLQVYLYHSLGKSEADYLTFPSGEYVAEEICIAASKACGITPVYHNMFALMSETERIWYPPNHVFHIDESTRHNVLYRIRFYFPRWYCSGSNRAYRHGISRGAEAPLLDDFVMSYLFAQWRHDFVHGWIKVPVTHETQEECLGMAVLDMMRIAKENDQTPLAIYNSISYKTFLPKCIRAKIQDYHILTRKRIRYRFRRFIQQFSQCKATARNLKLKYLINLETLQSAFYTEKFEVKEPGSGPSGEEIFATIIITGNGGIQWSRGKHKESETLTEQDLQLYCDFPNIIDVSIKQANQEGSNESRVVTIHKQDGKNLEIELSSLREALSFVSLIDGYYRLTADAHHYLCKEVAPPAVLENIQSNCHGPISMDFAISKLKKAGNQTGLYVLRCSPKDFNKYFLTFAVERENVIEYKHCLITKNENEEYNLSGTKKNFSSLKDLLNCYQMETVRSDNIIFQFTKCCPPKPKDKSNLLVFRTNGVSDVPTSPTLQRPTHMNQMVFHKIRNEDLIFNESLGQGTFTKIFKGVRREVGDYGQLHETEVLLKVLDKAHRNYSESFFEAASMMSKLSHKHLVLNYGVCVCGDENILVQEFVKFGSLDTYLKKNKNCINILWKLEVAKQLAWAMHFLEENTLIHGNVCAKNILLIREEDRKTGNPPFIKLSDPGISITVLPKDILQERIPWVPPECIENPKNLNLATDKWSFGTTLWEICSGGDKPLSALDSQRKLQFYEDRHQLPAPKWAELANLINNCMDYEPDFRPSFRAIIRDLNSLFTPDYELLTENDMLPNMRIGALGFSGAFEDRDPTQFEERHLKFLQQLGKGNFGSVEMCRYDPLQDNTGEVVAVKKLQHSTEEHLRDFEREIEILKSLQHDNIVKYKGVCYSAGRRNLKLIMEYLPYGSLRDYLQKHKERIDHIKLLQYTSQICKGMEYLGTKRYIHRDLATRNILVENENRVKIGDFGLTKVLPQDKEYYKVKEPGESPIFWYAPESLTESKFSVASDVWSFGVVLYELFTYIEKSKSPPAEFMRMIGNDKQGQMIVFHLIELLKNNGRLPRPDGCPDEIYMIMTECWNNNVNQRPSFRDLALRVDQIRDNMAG

The target in assay [2] is baculovirus-expressed ALK (Homo sapiens, UniProt Q9UM73). Kind of assay: ALK kinase inhibition, TRF/ELISA. The settings on record: read-out: ALK Potency. The assay is classed as biochemical. On the procedure: Briefly, each 96-well plate was coated with 100 μL/well of 10 μg/mL substrate (GST-PLC-γ) in Tris-buffered saline (TBS). […] The reaction was initiated by adding enzyme (30 ng/mL ALK) and was allowed to proceed at 37° C. for 15 minutes. Detection of the phosphorylated product was performed by adding 100 μL/well of Eu-N1 labeled PT66 antibody (Perkin Elmer #AD0041). […] Data analysis was performed using ActivityBase (IDBS, Guilford, UK). IC50 values were calculated by plotting percent inhibition versus log10 of the concentration of compound and fitting to the nonlinear regression sigmoidal dose-response (variable slope) equation in XLFit (IDBS, Guilford, UK).
baculovirus-expressed ALK, sequence (Q9UM73 19-1620): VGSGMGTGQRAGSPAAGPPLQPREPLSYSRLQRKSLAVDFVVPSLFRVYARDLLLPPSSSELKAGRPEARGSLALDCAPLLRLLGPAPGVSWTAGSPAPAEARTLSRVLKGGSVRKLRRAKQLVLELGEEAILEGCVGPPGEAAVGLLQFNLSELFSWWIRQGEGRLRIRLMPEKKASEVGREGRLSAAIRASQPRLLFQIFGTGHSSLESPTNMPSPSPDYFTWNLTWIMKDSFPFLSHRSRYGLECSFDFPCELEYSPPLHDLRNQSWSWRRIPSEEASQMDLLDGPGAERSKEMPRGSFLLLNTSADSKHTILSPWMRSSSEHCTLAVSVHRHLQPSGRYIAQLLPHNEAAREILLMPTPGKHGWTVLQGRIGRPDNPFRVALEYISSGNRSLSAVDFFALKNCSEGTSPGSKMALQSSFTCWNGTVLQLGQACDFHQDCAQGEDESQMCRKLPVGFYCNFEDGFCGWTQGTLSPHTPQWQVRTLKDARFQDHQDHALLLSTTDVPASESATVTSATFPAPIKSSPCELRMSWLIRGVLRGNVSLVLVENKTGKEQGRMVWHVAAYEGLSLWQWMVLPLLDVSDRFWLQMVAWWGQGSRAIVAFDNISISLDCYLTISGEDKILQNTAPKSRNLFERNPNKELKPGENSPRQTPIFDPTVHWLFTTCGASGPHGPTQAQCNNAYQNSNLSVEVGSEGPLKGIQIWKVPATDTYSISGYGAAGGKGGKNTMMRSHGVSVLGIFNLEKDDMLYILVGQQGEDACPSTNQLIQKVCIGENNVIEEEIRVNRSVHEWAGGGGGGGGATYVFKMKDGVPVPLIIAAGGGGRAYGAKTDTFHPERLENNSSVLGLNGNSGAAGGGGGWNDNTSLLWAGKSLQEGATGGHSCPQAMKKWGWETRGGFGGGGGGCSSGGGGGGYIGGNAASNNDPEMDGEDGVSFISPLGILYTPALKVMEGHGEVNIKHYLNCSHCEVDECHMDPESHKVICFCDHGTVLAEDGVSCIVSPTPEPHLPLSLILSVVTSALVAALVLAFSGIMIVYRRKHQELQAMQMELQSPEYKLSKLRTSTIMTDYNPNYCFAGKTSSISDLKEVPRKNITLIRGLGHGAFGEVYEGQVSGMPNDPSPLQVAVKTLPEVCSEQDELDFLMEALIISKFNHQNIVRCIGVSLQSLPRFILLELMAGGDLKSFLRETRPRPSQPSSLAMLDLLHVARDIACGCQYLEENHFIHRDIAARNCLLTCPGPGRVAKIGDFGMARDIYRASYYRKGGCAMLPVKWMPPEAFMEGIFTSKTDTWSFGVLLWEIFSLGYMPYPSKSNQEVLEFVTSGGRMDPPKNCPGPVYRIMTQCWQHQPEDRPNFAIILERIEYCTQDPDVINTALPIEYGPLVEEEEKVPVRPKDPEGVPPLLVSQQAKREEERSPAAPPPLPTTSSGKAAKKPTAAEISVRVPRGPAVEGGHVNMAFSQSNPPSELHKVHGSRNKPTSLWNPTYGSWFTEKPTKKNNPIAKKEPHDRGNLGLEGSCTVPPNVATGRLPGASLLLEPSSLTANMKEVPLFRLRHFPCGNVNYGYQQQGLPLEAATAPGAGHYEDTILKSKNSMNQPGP
For orientation: ELISA stands for enzyme-linked immunosorbent assay.

Where [3] appears, read: 0.2 μM ATP, read-out: JAK2 Potency.

Each structure is given as a SMILES string. Structures can show the parent of a compound that is named as a salt. Where two headings read alike, the source gives them in different places.

Consider `Cc1nc(C2CCNCC2)sc1-c1nc2c(N[C@H]3[C@@H](C(N)=O)[C@@H]4C=C[C@H]3C4)c(Cl)cnc2[nH]1` [Compound LXIV, (1S,2S,3R,4R)-3-[6-Chloro-2-(4-methyl-2-piperidin-4-yl-thiazol-5-yl)-3H-imidazo[4,5-b]pyridine-7-ylamino]-bicyclo[2.2.1]hept-5-ene-2-carboxylic acid amide], for which the IC50 in assay [1] (setting [3]) and in assay [2] was < 100 nM throughout.
Consider `CN(C)CCOc1ccc(-c2nc3c(N[C@H]4[C@@H](C(N)=O)[C@@H]5C=C[C@H]4C5)c(Cl)cnc3[nH]2)cc1` [Compound CCXLIX, (1S,2S,3R,4R)-3-(6-chloro-2-(4-(2-(dimethylamino)ethoxy)phenyl)-3H-imidazo[4,5-b]pyridin-7-ylamino)bicyclo[2.2.1]hept-5-ene-2-carboxamide], for which the IC50 in assay [1] (setting [3]) and in assay [2] was < 100 nM in each case.
For the molecule `COc1cc(CN2CC[C@@H](O)C2)ccc1-c1nc2c(N[C@@H]3CCCC[C@H]3NS(C)(=O)=O)c(Cl)cnc2[nH]1` [Compound LXXV, N-((1R,2R)-2-{6-Chloro-2-[4-((R)-3-hydroxy-pyrrolidin-1-ylmethyl)-2-methoxy-phenyl]-3H-imidazo[4,5-b]pyridine-7-ylamino}-cyclohexyl)-methanesulfonamide], the values for the IC50 in assay [1] (setting [3]) and in assay [2] were 1000 to 10000 nM and < 100 nM, respectively.
Take `COc1cc(N2CCOCC2)ccc1-c1nc2c(N3C[C@@H]4C[C@H]3CN4)c(Cl)cnc2[nH]1` [Compound XXXVII, 6-Chloro-7-(1S,4S)-2,5-diaza-bicyclo[2.2.1]hept-2-yl-2-(2-methoxy-4-morpholin-4-yl-phenyl)-3H-imidazo[4,5-b]pyridine hydrochloride]: the results for the IC50 in assay [1] (JAK2 Potency) and in assay [2] were 1000 to 10000 nM and > 10000 nM, respectively.
As for `NC(=O)[C@@H]1[C@H](Nc2c(Cl)cnc3[nH]c(-c4cccc(C(=O)N5CCNCC5)c4)nc23)[C@H]2C=C[C@@H]1C2` [Compound CCXIX, (1S,2S,3R,4R)-3-(6-chloro-2-(3-(piperazine-1-carbonyl)phenyl)-3H-imidazo[4,5-b]pyridin-7-ylamino)bicyclo[2.2.1]hept-5-ene-2-carboxamide], the IC50 in assay [1] (setting [3]) and in assay [2] was < 100 nM each time.
For `Cc1nn(C)c(N2CCOCC2)c1-c1nc2c(N[C@H]3[C@@H](C(N)=O)[C@@H]4C=C[C@H]3C4)c(Cl)cnc2[nH]1` [Compound CXXII, (1S,2S,3R,4R)-3-[6-Chloro-2-(1,3-dimethyl-5-morpholin-4-yl-1H-pyrazol-4-yl)-3H-imidazo[4,5-b]pyridin-7-ylamino]-bicyclo[2.2.1]hept-5-ene-2-carboxylic acid amide], the IC50 in assay [1] (setting [3]) and in assay [2] was 1000 to 10000 nM throughout.
As to `COc1cc(N2CCOCC2)ccc1-c1nc2c(N3C[C@@H]4C[C@H]3CN4C[C@H](C)O)c(Cl)cnc2[nH]1` [Compound XXXIX, (S)-1-[(1S,4S)-5-[6-Chloro-2-(methoxy-4-morpholin-4-yl-phenyl)-3H-imidazo[4,5-b]pyridine-7-yl]-2,5-diaza-bicyclo[2.2.1]hept-2-yl]-propan-2-ol], the IC50 in assay [1] (setting [3]) and in assay [2] was > 10000 nM each time.
On to `NC(=O)[C@@H]1[C@H](Nc2c(Cl)cnc3[nH]c(-c4cccc(O)c4)nc23)[C@H]2C=C[C@@H]1C2` [Compound CCXXXIII, (1S,2S,3R,4R)-3-(6-chloro-2-(3-hydroxyphenyl)-3H-imidazo[4,5-b]pyridin-7-ylamino)pyridin[2.2.1]hept-5-ene-2-carboxamide], for which the IC50 in assay [1] (setting [3]) was < 100 nM; in assay [2] it was 100 to 1000 nM.
The matching figures for `NC(=O)[C@@H]1[C@H](Nc2c(Br)cnc3[nH]c(-c4ccc(F)cc4)nc23)[C@H]2C=C[C@@H]1C2` [Compound CXXXIII, (1S,2S,3R,4R)-3-[6-Bromo-2-(4-fluoro-phenyl)-3H-imidazo[4,5-b]pyridin-7-ylamino]-bicyclo[2.2.1]hept-5-ene-2-carboxylic acid amide]: < 100 nM and 100 to 1000 nM.
